From US8273775B2, “Non-steroidal brassinosteroid mimetic” (priority 2006, dated 2012)

System: gene expression in Col-0 seedling shoots
Assay: Microarray analysis (ATH1 Affymetrix) after BL or abrasin treatment
Type: in vivo, Arabidopsis
Protocol: FIG. 14: Clustering of gene expression profiles by QT-clust analysis. Clusters illustrating the major patterns of the data sets. Points: BIK-30: 30 μM abrasin 30 min; BL-30: 1 μM brassinolide 30 min; DMSO-30: control DMSO 30 min; BIK-120: 30 μM abrasin 120 min; BL-120: 1 μM brassinolide 120 min; DMSO-120: control DMSO 120 min.
Col-0 seeds were germinated vertically on ½ MS medium for 7 days under 16 h light/8 h dark cycles. The seedlings were overlaid with liquid ½ MS medium containing 1 μM brassinolide (BL, Fuji Chemical Industries, Ltd., Toyama, Japan), 30 μM abrasin (BIK, ChemBridge Corporation) and DMSO and treated for 30 and 120 min. The shoot parts were collected for RNA isolation. All sampling points were performed in three independent experiments. RNA was extracted using RNeasy kit (Qiagene). […] total RNA per array was used to hybridise the ATH1 Affymetrix Arabidopsis arrays according to standard procedure. The overrepresentation analyses were performed using BiNGO software (Maere et al., 2005).
We performed a microarray analysis using the Arabidopsis whole genome chip (Affymetix) to determine whether abrasin activated the expression of BR-inducible genes at transcriptional level. Wild-type Col-0 seedlings were exposed to 1 μM BL, 30 μM ABRASIN and DMSO (mock-treatment) for two time points (30 min and 120 min) and the shoot parts were collected for RNA isolation. The analysis of the variance of the normalized gene expression data took in account the variability parameters affecting the expression level: type of hormone treatment, duration of treatment and the interaction between these two.

CC(C)[C@H](C)[C@@H](O)[C@H](O)[C@@H](C)[C@H]1CC[C@H]2[C@@H]3COC(=O)[C@H]4C[C@H](O)[C@H](O)C[C@]4(C)[C@H]3CC[C@]12C [BL, brassinolide, reference compound]
expression of BR biosynthesis genes (CPD, DWF4, BR6OX2), Cluster 1 (1 μM BL, 30 μM ABRASIN): down-regulated
expression of genes involved in the auxin pathway (IAA29, IAA2) (1 μM BL, 30 μM ABRASIN): significantly down-regulated
induction of early auxin-inducible SAUR family genes, Cluster 3 (1 μM BL, 30 μM ABRASIN, 30 and 120 min): induced by BL as faster as 30 min treatment
Fold-change AT1G04330 expressed protein (30 min): 1.04
Fold-change AT1G05470 endonuclease/exonuclease/phosphatase family protein (30 min): 1.04
Fold-change AT1G06520 Encodes a membrane associated mitochondrial localized protein (30 min): 1.57
Fold-change AT1G06570 4-hydroxyphenylpyruvate dioxygenase (HPD) (30 min): 0.87
Fold-change AT1G10550 xyloglucan:xyloglucosyl transferase (30 min): 1.34
Fold-change AT1G12710 F-box family protein (30 min): 1.26
Fold-change AT1G12750 rhomboid family protein (30 min): 1.15
Fold-change AT1G14130 2-oxoglutarate-dependent dioxygenase (30 min): 1.26
Fold-change AT1G14700 purple acid phosphatase (30 min): 0.73
Fold-change AT1G16640 transcriptional factor B3 family protein (30 min): 1.02
Fold-change AT1G17230 leucine-rich repeat family protein (30 min): 1.08
Fold-change AT1G18020; AT1G17990 [AT1G18020, 12-oxophytodienoate reductase, (30 min): 0.80
Fold-change AT1G19320 pathogenesis-related thaumatin family protein (30 min): 0.81
Fold-change AT1G20350 mitochondrial import inner membrane translocase subunit (30 min): 0.99
Fold-change AT1G21050 expressed protein (30 min): 0.72
Fold-change AT1G21760 F-box family protein (30 min): 1.02
Fold-change AT1G22360 UDP-glucoronosyl/UDP-glucosyl transferase family protein (30 min): 0.94
Fold-change AT1G23080 auxin efflux carrier protein (PIN7) (30 min): 0.89
Fold-change AT1G26800 zinc finger (C3HC4-type RING finger) family protein, (30 min): 1.51
Fold-change AT1G27730 zinc finger (C2H2 type) family protein (30 min): 0.18
Fold-change AT1G28130 encodes an IAA-amido synthase (30 min): 0.85
Fold-change AT1G28190 expressed protein (30 min): 0.66
Fold-change AT1G28480 glutaredoxin family protein (30 min): 0.99
Fold-change AT1G31040 zinc-binding protein-related (30 min): 0.88
Fold-change AT1G31310 hydroxyproline-rich glycoprotein family protein (30 min): 0.85
Fold-change AT1G31770 ABC transporter family protein (30 min): 0.99
Fold-change AT1G32190 expressed protein (30 min): 1.00
Fold-change AT1G32690 expressed protein (30 min): 0.92
Fold-change AT1G36940 expressed protein (30 min): 0.89
Fold-change AT1G49780 U-box domain-containing protein (30 min): 0.53
Fold-change AT1G53870; AT1G53890 [AT1G53870, expressed protein (30 min): 0.89
Fold-change AT1G54050 17.4 kDa class III heat shock protein (HSP17.4-CIII) (30 min): 1.09
Fold-change AT1G54200 expressed protein (30 min): 1.16
Fold-change AT1G55920 serine O-acetyltransferase (30 min): 1.04
Fold-change AT1G57560 myb family transcription factor (MYB50) (30 min): 1.04
Fold-change AT1G59590 expressed protein (30 min): 0.95
Fold-change AT1G59660 nucleoporin family proteinmily (30 min): 1.67
Fold-change AT1G62300 WRKY family transcription factor (30 min): 0.63
Fold-change AT1G63050 membrane bound O-acyl transferase (MBOAT) family protein (30 min): 0.98
Fold-change AT1G66160 U-box domain-containing protein, (30 min): 1.10
Fold-change AT1G66890 expressed protein (30 min): 0.72
Fold-change AT1G68330 expressed protein (30 min): 0.90
Fold-change AT1G68810 basic helix-loop-helix (bHLH) family protein (30 min): 1.11
Fold-change AT1G69160 expressed protein (30 min): 1.06
Fold-change AT1G70990 proline-rich family protein (30 min): 1.59
Fold-change AT1G71030 Encodes a putative myb family transcription factor (30 min): 0.84
Fold-change AT1G72060 expressed protein (30 min): 0.96
Fold-change AT1G72180 leucine-rich repeat transmembrane protein kinase (30 min): 0.87
Fold-change AT1G72800 nuM1-related, contains (30 min): 1.08
Fold-change AT1G75270 dehydroascorbate reductase (30 min): 1.27
Fold-change AT1G75500 nodulin MtN21 family protein (30 min): 0.91
Fold-change AT1G76240 expressed protein, (30 min): 0.57
Fold-change AT1G76410 zinc finger (C3HC4-type RING finger) (30 min): 1.61
Fold-change AT1G79110 expressed protein (30 min): 1.09
Fold-change AT1G79630 protein phosphatase 2C family protein (30 min): 0.78
Fold-change AT1G80440 kelch repeat-containing F-box family protein (30 min): 1.71
Fold-change AT2G01300 expressed protein (30 min): 1.16
Fold-change AT2G01990 expressed protein, (30 min): 0.91
Fold-change AT2G04240 zinc finger (C3HC4-type RING finger) family protein (30 min): 1.46
Fold-change AT2G05540 glycine-rich protein (30 min): 0.92
Fold-change AT2G12290; AT4G19700 [AT2G12290, expressed protein]; [AT4G19700, expressed protein] (30 min): 0.80
Fold-change AT2G18010 auxin-responsive family protein (SAUR10) (30 min): 1.60
Fold-change AT2G19800 expressed protein (30 min): 1.20
Fold-change AT2G22860 phytosulfokines 2 (PSK2) (30 min): 0.86
Fold-change AT2G23180 cytochrome P450, putative (30 min): 1.10
Fold-change AT2G23320 WRKY family transcription factor (30 min): 0.86
Fold-change AT2G26530 expressed protein (30 min): 0.41
Fold-change AT2G26710 cytochrome p450 family (BAS1) (30 min): 1.56
Fold-change AT2G28510 Dof-type zinc finger domain-containing protein (30 min): 0.94
Fold-change AT2G29340 short-chain dehydrogenase/reductase (SDR) family protein (30 min): 0.85
Fold-change AT2G29990 pyridine nucleotide-disulphide oxidoreductase family protein (30 min): 0.94
Fold-change AT2G30070 potassium transporter (KUP1) (30 min): 0.81
Fold-change AT2G31230 encodes a member of the ERF (ethylene response factor) (30 min): 1.66
Fold-change AT2G34650 protein kinase PINOID (PID) (30 min): 1.54
Fold-change AT2G36220 expressed protein (30 min): 1.18
Fold-change AT2G37590 Dof-type zinc finger domain-containing protein (30 min): 0.90
Fold-change AT2G38470 WRKY family transcription factor (30 min): 0.38
Fold-change AT2G39710 aspartyl protease family protein (30 min): 1.25
Fold-change AT2G40340; AT2G40350 [AT2G40340, encodes a member of the DREB subfamily A-2 of ERF/AP2 (30 min): 1.16
Fold-change AT2G41250 haloacid dehalogenase-like hydrolase family protein (30 min): 0.91
Fold-change AT2G41640 expressed protein (30 min): 0.84
Fold-change AT2G42280 basic helix-loop-helix (bHLH) family protein (30 min): 0.98
Fold-change AT2G43060 expressed protein, similar to cDNA bHLH transcription factor (30 min): 0.25
Fold-change AT2G43280 far-red impaired responsive family protein (30 min): 0.84
Fold-change AT2G43290 calmodulin-like protein (MSS3) (30 min): 1.24
Fold-change AT2G44130 kelch repeat-containing F-box family protein (30 min): 1.63
Fold-change AT2G44500 expressed protein (30 min): 1.16
Fold-change AT2G45210 auxin-responsive protein-related (30 min): 0.77
Fold-change AT2G45680 TCP family transcription factor (30 min): 0.91
Fold-change AT2G46225 Encodes a subunit of the WAVE complex (30 min): 0.97
Fold-change AT2G47440 DNAJ heat shock N-terminal domain-containing protein (30 min): 1.31
Fold-change AT3G04210 disease resistance protein (TIR-NBS class), putative, (30 min): 0.89
Fold-change AT3G09920 phosphatidylinositol-4-phosphate 5-kinase family protein (30 min): 0.94
Fold-change AT3G12920 expressed protein (30 min): 0.81
Fold-change AT3G13040 myb family transcription factor (30 min): 0.84
Fold-change AT3G13510 expressed protein (30 min): 1.06
Fold-change AT3G13980 expressed protein (30 min): 0.71
Fold-change AT3G14370 protein kinase family protein (30 min): 2.13
Fold-change AT3G14560 expressed protein (30 min): 0.81
Fold-change AT3G16570 rapid alkalinization factor (RALF) family protein (30 min): 0.88
Fold-change AT3G17860 expressed protein (30 min): 1.08
Fold-change AT3G18830 polyol/cyclitol/monosaccharide-H+-symporte (30 min): 1.11
Fold-change AT3G19380 U-box domain-containing protein (30 min): 0.70
Fold-change AT3G23030 auxin-responsive protein/indoleacetic acid-induced protein 2 (IAA2) (30 min): 0.66
Fold-change AT3G23550 MATE efflux family protein (30 min): 0.84
Fold-change AT3G25710 basic helix-loop-helix (bHLH) family protein (30 min): 1.06
Fold-change AT3G25900 homocysteine S-methyltransferase 1 (HMT-1) (30 min): 1.17
Fold-change AT3G26910 hydroxyproline-rich glycoprotein family protein (30 min): 1.08
Fold-change AT3G30180 cytochrome p450 enzyme (30 min): 0.31
Fold-change AT3G46880 expressed protein, (30 min): 0.84
Fold-change AT3G47800 aldose 1-epimerase family protein (30 min): 1.06
Fold-change AT3G48970 copper-binding family protein (30 min): 0.97
Fold-change AT3G49810 U-box domain-containing protein (30 min): 0.89
Fold-change AT3G50650 scarecrow-like transcription factor 7 (SCL7) (30 min): 1.17
Fold-change AT3G50660 steroid 22-alpha-hydroxylase (CYP90B1) (DWF4) (30 min): 0.47
Fold-change AT3G50750 brassinosteroid signalling positive regulator-related (BEH1) (30 min): 0.99
Fold-change AT3G52490 heat shock protein-related (30 min): 0.93
Fold-change AT3G53810 lectin protein kinase (30 min): 0.80
Fold-change AT3G54950 patatin-related, (30 min): 0.86
Fold-change AT3G55120 chalcone-flavanone isomerase (30 min): 0.98
Fold-change AT3G55150 exocyst subunit EXO70 family protein (30 min): 0.75
Fold-change AT3G55840 expressed protein (30 min): 1.06
Fold-change AT3G61460 zinc finger (C3HC4-type RING finger) family protein (BRH1) (30 min): 0.78
Fold-change AT3G63300 expressed protein (30 min): 1.02
Fold-change AT4G01680 myb family transcription factor (MYB55) (30 min): 0.51
Fold-change AT4G02410 lectin protein kinase family protein (30 min): 0.66
Fold-change AT4G08040 1-aminocyclopropane-1-carboxylate synthase, putative (30 min): 0.13
Fold-change AT4G09460 myb family transcription factor (30 min): 1.30
Fold-change AT4G12390 invertase/pectin methylesterase inhibitor family protein (30 min): 0.96
Fold-change AT4G12410 auxin-responsive family protein (30 min): 1.02
Fold-change AT4G14130 xyloglucan:xyloglucosyl transferase (30 min): 0.85
Fold-change AT4G15975 zinc finger (C3HC4-type RING finger) family protein (30 min): 1.10
Fold-change AT4G16146 expressed protein (30 min): 0.82
